Holding throughout (type): in vivo, mouse
One test relates to MRL/lpr mice. Put plainly: Renal histopathology kidney IC-GN scoring in MRL/lpr mice. As to conditions: for Glomerular Cellularity / Glomerular Necrosis / Glomerulosclerosis / Interstitial Fibrosis / Interstitial Inflitration / Tubular Atrophy / Vasculitis: MRL/lpr kidney score (grade 0-5), mean. How it is done: Kidney stains used for histological analyses included hematoxylin and eosin (H&E), Periodic Acid Schiff (PAS) and Trichrome stains (Wistar Institute, Philadelphia, Pa.). All 3 stained sections were used by the pathologist for scoring purposes. All histological scoring was performed blinded and by an independent board certified veterinary medical pathologist (Julie […]; University of Pennsylvania). Multiple stains were used to determine score values. Images in FIGS. 8, 19 and 20 show worst affected area of section selected blindly by the pathologist. Kidney IC-GN Scoring Method (Smith, Dong et al. 2007): 1. Glomerular cellularity-Score 1-5: Null, low, moderate, high, severe […] Glomerular necrosis-Score 1-5: Null, low, moderate, high, severe […] Glomerulosclerosis-Score 1-5: Null, low, moderate, high, severe […] Null, low, moderate, high, severe 5. […] Null, low, moderate, high, severe 6. […] Null, low, moderate, high, severe 7. […] Null, low, moderate, high, severe Specific Pathologist Definitions: • Necrosis was defined by the presence of nuclear debris/pyknosis within the glomerular tuft indicative of “necrosis.” In many samples, this was a very mild, rare finding within only a very few segments of the glomerular tuft. Also considered effacement of the glomerular tuft by PAS positive, Trichrome negative material necrosis. • Glomerular sclerosis was defined by increased fibroplasia or fibrosis within the glomerular tuft or capsule. […] Most of the vascular changes were mild and could be considered “arteriosclerosis” characterized by proliferation of the smooth muscle cells, and hyalinization of the extracellular matrix. This change may reflect hypertension secondary to glomerular pathology. In very few animals was there overt “vasculitis.” Most inflammatory changes were within the walls of the blood vessels, with little to no damage to the endothelium, and no overt hemorrhage/fibrin leakage. Many also have perivascular rims of fibroblasts. […] Mice were tracked on an individual basis.

Another test has as its system NZM mice. The experiment in a line: Urinalysis total urine protein (proteinuria) in NZM mice. The following applies: for I: Proteinuria, MEAN: NZM group mean; for I: Proteinuria: NZM individual mouse. How it is done:
Urine samples were acid precipitated for total protein recovery and analysis. Samples for which enough urine remained were used for Uristix® leukouria analysis (MRL/lpr study only). Briefly, a standard protein solution was prepared from normal mouse sera and was used as a standard for mouse urinary protein assay by turbidity. Standard preparation was as follows: 0, 5, 10, 15, 20, 30, 40, and 50 μL of a 4 mg/mL mouse sera standard protein solution as provided in the kit were added in duplicate into two columns. PBS was added to individual wells to adjust the final volume to 50 μL. For urine sample preparation, urine samples were centrifuged at 9880×g for 3 minutes using a tabletop micro-centrifuge. Urine supernatant (1-50 μL) was added in duplicate. PBS was added to adjust the volume to 50 μL total. For the turbidity assay: 25 μL of 0.1 N HCl was added into blank columns and 250 μL of 3% sulfosalicyclic acid into the test columns. The microplate was incubated for 10 minutes at RT and plates were read using an ELISA reader with single beam at 450 nm. For the Uristix® strip assay, strips were laid out and labeled. Twenty microliters of urine were placed onto each test strip square and incubated for at least 30 seconds before the result was recorded. For all total urine analysis plate-based assays, values below the limit of detection set by the lowest point along the standard or set by the manufacturer were considered out of range and were not estimated, but assumed the lowest point along the standard curve for that particular assay.
(§1) Age mated, female, NZM or NZW/LacJ, mice were matured for the study of lupus nephritis for a total of 7 months or 210 days at which time urine was collected for proteinuria detection. Mice with 0.5-1.0 mg/ml of urine protein as determined by an optical density-based total protein precipitation assay and cross-checked for 30-300 mg/dl of protein as determined by a stick assay were considered proteinuria positive and selected for study entry. Groups were normalized to contain a Gaussian distribution of proteinuria positive animals (i.e., ⅓ low proteinuria, ⅓ medium, ⅓ high) then randomized between groups before ear marking and taking baseline measures including urine and serum collections. A total of five mice from the total population were randomly selected for baseline kidney histology evaluation. Treatments and tests for each group are as described in FIG. 12. Briefly, with a minimum of 10 mice per group, COMPOUND A was administered at 100 mg/kg or 55 mg/kg, both twice a day and orally. […] Vehicle included 3% DMSO, 10% Solutol and 87% PBS. […] End-stage lupus nephritis was evaluated by histopathology and scored by a board certified pathologist for the assessment of total renal damage in diseased animals using the scoring method described by Smith et al (Smith, Dong et al. 2007). […] Day-98 or “end of treatment/study” represents 310 days of age for the NZM animals.

The subject of a further test is IFNα. The experiment in a line: Serum IFNα at EOS in NZM mice. The following applies: for serum IFNα decrease compared to vehicle: EOS. How it is done: as §1
[1] abbreviates: MRL/lpr mice, 100 mg/kg, p<0.01.

Each structure is given as a SMILES string. Several values for one entry are separate records, joined by “and”; a condition that tells them apart may be missing. Equal values may be shown once.

Turning to `CN1CCN(c2cccc(Nc3nc4c(-c5ccc(S(C)(=O)=O)cc5)cccn4n3)c2)CC1` [COMPOUND A, [8-(4-methanesulfonyl-phenyl)-[1,2,4]triazolo[1,5-a]pyridin-2-yl]-[3-(4-methyl-piperazin-1-yl)-phenyl]-amine], in the test with MRL/lpr mice (COMPOUND A 30 mg/kg), the “Glomerular Cellularity” value was found to be 2.60, the “Glomerular Necrosis” value was found to be 1.80, the Glomerulosclerosis came to 1.60 and the “Interstitial Fibrosis” value was found to be 1.60. Further, in the test on MRL/lpr mice (COMPOUND A 30 mg/kg), the “Interstitial Inflitration” value amounted to 2.20, the “Tubular Atrophy” value worked out at 1.20 and the Vasculitis was determined as 1.80. In the test on MRL/lpr mice (COMPOUND A 55 mg/kg), the “Glomerular Cellularity” value amounted to 3.20, the “Glomerular Necrosis” value was 1.80, the Glomerulosclerosis came to 2.00 and the “Interstitial Fibrosis” value is listed as 1.20. In the test on MRL/lpr mice (COMPOUND A 55 mg/kg), the “Interstitial Inflitration” value came to 2.00, the “Tubular Atrophy” value is 2.20 and the Vasculitis stood at 2.00. Further, in the test with MRL/lpr mice (COMPOUND A 100 mg/kg), the “Glomerular Cellularity” value worked out at 2.40, the “Glomerular Necrosis” value came out at 1.8, the Glomerulosclerosis amounted to 2.20 and the “Interstitial Fibrosis” value is 1.40. For the same molecule, in the test with MRL/lpr mice (COMPOUND A 100 mg/kg), the “Interstitial Inflitration” value turned out to be 1.80, the “Tubular Atrophy” value was 1.40 and the Vasculitis was 1.40. In addition, the “interstitial infiltration decrease vs vehicle” value in the test with MRL/lpr mice (MRL/lpr mice, 55 mg/kg, p<0.05) is listed as 33.3%. For the same molecule, in the test with MRL/lpr mice (setting [1]), the “glomerular cellularity decrease vs vehicle” value was 33.3%, the “interstitial infiltration decrease vs vehicle” value amounted to 40% and the “vasculitis decrease vs vehicle” value was 46.1%. Also, the “enlarged glomeruli and leukocytic infiltrations in renal sections” value in the test on MRL/lpr mice (MRL/lpr mice, COMPOUND A treated animals at EOS, FIG. 8) is “absent”. Also, in the test on MRL/lpr mice (MRL/lpr mice, compared to dexamethasone and vehicle groups, FIG. 8), the “cellular infiltrations/glomerulonephritis and glomerular size in H&E stained renal sections” value is “decreases in both cellular infiltrations/glomerulonephritis and glomerular size”. Further, the “I: Proteinuria, MEAN” value with NZM mice (CMPD A 55 mpk bid) is listed as 0.56 mg/mL. For the same molecule, in the test on NZM mice (CMPD A 100 mpk bid), the “I: Proteinuria, MEAN” value is 1.32 mg/mL. For the same molecule, the “I: Proteinuria” value in the test on NZM mice (CMPD A 55 mpk bid, 55 mg/kg) was 0.41 mg/mL (2×) and 0.50 mg/mL and 0.74 mg/mL and 0.48 mg/mL (2×) and 0.52 mg/mL and 1.11 mg/mL and 0.37 mg/mL and 0.61 mg/mL. For the same molecule, in the test with NZM mice (CMPD A 100 mpk bid, “0.00” = BQL, 100 mg/kg), the “I: Proteinuria” value was 0.48 mg/mL and 0.55 mg/mL and 0.70 mg/mL and 0.53 mg/mL and 0.44 mg/mL and 0.11 mg/mL and 0.00 mg/mL (3×) and 10.39 mg/mL. The “total urine protein decrease compared to vehicle” value (“total urine protein decrease” below) with NZM mice (NZM mice, COMPOUND A 55 mg/kg, over course of disease) was 76.25. Besides, the “total urine protein decrease” value in the test with NZM mice (NZM mice, COMPOUND A 100 mg/kg, over course of disease) came to 81.8%. Further, in the test on NZM mice (NZM mice, COMPOUND A treatment, FIG. 17), the “urine protein levels relative to age-matched, non-lupus control mice” value is on record as “below the protein levels of age-matched, non-lupus control mice”. Besides, the “serum IFNα decrease compared to vehicle” value with IFNα (COMPOUND A 55 mg/kg) turned out to be 70.2%. Further, the “serum IFNα decrease compared to vehicle” value in the test on IFNα (COMPOUND A 100 mg/kg) came to 73.2%.
`O=P1(N(CCCl)CCCl)NCCCO1` (stereo not shown) [CTX, cyclophosphamide, reference compound]: in the test with NZM mice (CTX 50 mpk 1 × wk), the “I: Proteinuria, MEAN” value is 2.8 mg/mL; the “I: Proteinuria” value is 11.09 mg/mL and 0.86 mg/mL and 1.44 mg/mL and 0.76 mg/mL and 1.30 mg/mL and 0.71 mg/mL and 8.84 mg/mL and 0.96 mg/mL and 0.58 mg/mL and 1.50 mg/mL. The “total urine protein decrease” value in the test on NZM mice (NZM mice, CTX 50 mg/kg once weekly ip) is recorded as 67.1%. For the same molecule, in the test on IFNα (CTX 50 mg/kg once weekly ip), the “serum IFNα reduction” value is reported as “Neither standard of care agent (i.e., CTX or DEX) exhibited a significant reduction”.
Regarding `C[C@@H]1C[C@H]2[C@@H]3CCC4=CC(=O)C=C[C@]4(C)[C@@]3(F)[C@@H](O)C[C@]2(C)[C@@]1(O)C(=O)CO` [Dex, dexamethasone, reference compound], in the test with MRL/lpr mice (Dex 1.5 mg/kg), the “Glomerular Cellularity” value was determined as 3.00, the “Glomerular Necrosis” value is recorded as 2.00, the Glomerulosclerosis came to 2.00 and the “Interstitial Fibrosis” value is on record as 1.20. Moreover, in the test with MRL/lpr mice (Dex 1.5 mg/kg), the “Interstitial Inflitration” value came out at 1.60, the “Tubular Atrophy” value was determined as 1.20 and the Vasculitis was determined as 1.40. In the test on NZM mice (Dex 1.5 mpk 3 × wk), the “I: Proteinuria, MEAN” value was determined as 7.86 mg/mL; the “I: Proteinuria” value was 8.43 mg/mL and 10.19 mg/mL (2×) and 11.02 mg/mL and 8.47 mg/mL and 0.35 mg/mL and 7.16 mg/mL and 0.55 mg/mL and 12.36 mg/mL and 9.89 mg/mL.

These data come from patent publication US9023853B2, “Janus kinase 2 (JAK2) inhibitor for the treatment of lupus” (Cephalon, Inc., priority 2010, dated 2015).
